From publication PMC4054929 (Bioorganic & medicinal chemistry, 2014)
Values joined by “and” are separate entries in the source; they are usually repeats but may differ in a detail not shown here. Equal values may be shown once.

Key:
PDE10A [1] = molecular target: PDE10A (Rattus norvegicus, UniProt Q9QYJ6); details: for Distribution, blood, MP-10 block / Distribution, cerebellum, MP-10 block / Distribution, fat, MP-10 block / Distribution, heart, MP-10 block / Distribution, kidney, MP-10 block / Distribution, liver, MP-10 block / Distribution, lung, MP-10 block / Distribution, muscle, MP-10 block / Distribution, striatum, MP-10 block / Distribution, total brain, MP-10 block: rats pretreated with MP-10 2.0 mg/kg 5 min prior to tracer; for striatal binding after blocking dose of MP-10: MP-10 2 mg/kg i.v. 5 min prior to tracer, p < 0.05
PDE10A [2] = details: NHP brain
[3] = In vivo biodistribution and regional brain uptake in rats; details: for Biodistribution, blood / Biodistribution, cerebellum / Biodistribution, fat / Biodistribution, heart / Biodistribution, kidney / Biodistribution, liver / Biodistribution, lung / Biodistribution, muscle / Biodistribution, striatum / Biodistribution, total brain: male SD rats, i.v.

PDE10A (Rattus norvegicus, UniProt Q9QYJ6), sequence (Q9QYJ6 whole entry): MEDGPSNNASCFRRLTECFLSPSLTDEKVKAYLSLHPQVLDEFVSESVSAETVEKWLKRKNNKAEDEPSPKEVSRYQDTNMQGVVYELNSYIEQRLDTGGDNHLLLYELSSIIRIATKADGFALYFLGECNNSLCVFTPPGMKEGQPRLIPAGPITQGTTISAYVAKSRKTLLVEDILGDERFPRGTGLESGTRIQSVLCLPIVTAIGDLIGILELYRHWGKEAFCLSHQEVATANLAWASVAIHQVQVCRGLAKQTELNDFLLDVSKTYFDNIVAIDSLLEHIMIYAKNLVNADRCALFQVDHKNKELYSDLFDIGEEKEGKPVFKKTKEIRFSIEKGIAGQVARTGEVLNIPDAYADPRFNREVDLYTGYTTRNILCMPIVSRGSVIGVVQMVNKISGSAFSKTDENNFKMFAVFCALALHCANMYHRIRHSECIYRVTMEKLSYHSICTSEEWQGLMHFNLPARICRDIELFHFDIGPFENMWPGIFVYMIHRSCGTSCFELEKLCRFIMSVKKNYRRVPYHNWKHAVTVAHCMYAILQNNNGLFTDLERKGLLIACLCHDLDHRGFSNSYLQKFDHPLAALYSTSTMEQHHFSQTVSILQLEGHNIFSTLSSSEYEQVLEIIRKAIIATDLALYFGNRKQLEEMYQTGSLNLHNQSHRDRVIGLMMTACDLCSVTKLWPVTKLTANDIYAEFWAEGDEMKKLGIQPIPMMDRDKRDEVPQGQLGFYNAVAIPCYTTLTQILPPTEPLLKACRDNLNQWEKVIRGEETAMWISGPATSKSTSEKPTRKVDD

## Cn1cc(-c2ccncc2)c(-c2ccc(OCc3nc4ccccc4cc3O[11CH3])cc2)n1 [[^11C]1, 3-(methoxy-^11C)-2-((4-(1-methyl-4-(pyridin-4-yl)-1H-pyrazol-3-yl)phenoxy)methyl)quinoline]
PDE10A [1]; 30 min p.i.
  Distribution, blood, MP-10 block: 0.407 ± 0.026 %ID/gram
  Distribution, cerebellum, MP-10 block: 0.119 ± 0.006 %ID/gram
  Distribution, fat, MP-10 block: 1.353 ± 0.202 %ID/gram
  Distribution, heart, MP-10 block: 0.340 ± 0.036 %ID/gram
  Distribution, kidney, MP-10 block: 1.523 ± 0.162 %ID/gram
  Distribution, liver, MP-10 block: 5.781 ± 0.696 %ID/gram
  Distribution, lung, MP-10 block: 0.404 ± 0.024 %ID/gram
  Distribution, muscle, MP-10 block: 0.257 ± 0.026 %ID/gram
  Distribution, striatum, MP-10 block: 0.294 ± 0.013 %ID/gram
  Distribution, total brain, MP-10 block: 0.128 ± 0.003 %ID/gram
PDE10A [1]; rats, MP-10 2 mg/kg 5 min prior to tracer, 30 min p.i.
  decrease of striatum: cerebellum ratio by MP-10 pretreatment: 50%
PDE10A [1]; rats
  striatal binding after blocking dose of MP-10: significant reduction
PDE10A [2]
  blood–brain-barrier penetration: readily penetrate the blood–brain-barrier
[3]; 5 min p.i.
  Biodistribution, blood: 0.679 ± 0.116 %ID/gram
  Biodistribution, cerebellum: 0.229 ± 0.039 %ID/gram
  Biodistribution, fat: 0.935 ± 0.462 %ID/gram
  Biodistribution, heart: 0.733 ± 0.039 %ID/gram
  Biodistribution, kidney: 4.354 ± 0.473 %ID/gram
  Biodistribution, liver: 11.005 ± 0.758 %ID/gram
  Biodistribution, lung: 1.602 ± 0.509 %ID/gram
  Biodistribution, muscle: 0.412 ± 0.064 %ID/gram
  Biodistribution, striatum: 0.488 ± 0.101 ^a %ID/gram
  Biodistribution, total brain: 0.231 ± 0.038 %ID/gram
[3]; 30 min p.i. (control)
  Biodistribution, blood: 0.321 ± 0.021 %ID/gram
  Biodistribution, cerebellum: 0.097 ± 0.016 %ID/gram
  Biodistribution, fat: 0.851 ± 0.314 %ID/gram
  Biodistribution, heart: 0.296 ± 0.038 %ID/gram
  Biodistribution, kidney: 1.647 ± 0.459 %ID/gram
  Biodistribution, liver: 7.345 ± 1.472 %ID/gram
  Biodistribution, lung: 0.408 ± 0.083 %ID/gram
  Biodistribution, muscle: 0.244 ± 0.073 %ID/gram
  Biodistribution, striatum: 0.452 ± 0.086 ^a %ID/gram and 0.452 ± 0.086 %ID/gram
  Biodistribution, total brain: 0.133 ± 0.024 %ID/gram
[3]; 60 min p.i.
  Biodistribution, blood: 0.275 ± 0.028 %ID/gram
  Biodistribution, cerebellum: 0.064 ± 0.006 %ID/gram
  Biodistribution, fat: 0.500 ± 0.087 %ID/gram
  Biodistribution, heart: 0.199 ± 0.013 %ID/gram
  Biodistribution, kidney: 1.275 ± 0.141 %ID/gram
  Biodistribution, liver: 6.398 ± 0.945 %ID/gram
  Biodistribution, lung: 0.299 ± 0.042 %ID/gram
  Biodistribution, muscle: 0.142 ± 0.014 %ID/gram
  Biodistribution, striatum: 0.380 ± 0.048 ^a %ID/gram
  Biodistribution, total brain: 0.095 ± 0.008 %ID/gram

## Cn1cc(-c2ccncc2)c(-c2ccc(OCc3cc(O[11CH3])c4ccccc4n3)cc2)n1 [[^11C]2, 4-(methoxy-^11C)-2-((4-(1-methyl-4-(pyridin-4-yl)-1H-pyrazol-3-yl)phenoxy)methyl)quinoline]
PDE10A [1]; 30 min p.i.
  Distribution, blood, MP-10 block: 0.343 ± 0.007 %ID/gram
  Distribution, cerebellum, MP-10 block: 0.112 ± 0.011 %ID/gram
  Distribution, fat, MP-10 block: 0.697 ± 0.219 %ID/gram
  Distribution, heart, MP-10 block: 0.310 ± 0.040 %ID/gram
  Distribution, kidney, MP-10 block: 1.072 ± 0.069 %ID/gram
  Distribution, liver, MP-10 block: 4.723 ± 0.489 %ID/gram
  Distribution, lung, MP-10 block: 0.362 ± 0.021 %ID/gram
  Distribution, muscle, MP-10 block: 0.224 ± 0.012 %ID/gram
  Distribution, striatum, MP-10 block: 0.175 ± 0.022 %ID/gram
  Distribution, total brain, MP-10 block: 0.114 ± 0.007 %ID/gram
PDE10A [1]; rats
  striatal binding after blocking dose of MP-10: significant reduction
PDE10A [2]
  blood–brain-barrier penetration: readily penetrate the blood–brain-barrier
[3]; SD rats, 60 min p.i.
  striatum: cerebellum ratio: 2.5 fold
[3]; 5 min p.i.
  Biodistribution, blood: 0.268 ± 0.053 %ID/gram
  Biodistribution, cerebellum: 0.215 ± 0.031 %ID/gram
  Biodistribution, fat: 0.242 ± 0.065 %ID/gram
  Biodistribution, heart: 0.464 ± 0.023 %ID/gram
  Biodistribution, kidney: 2.340 ± 0.295 %ID/gram
  Biodistribution, liver: 7.080 ± 0.435 %ID/gram
  Biodistribution, lung: 0.890 ± 0.206 %ID/gram
  Biodistribution, muscle: 0.258 ± 0.035 %ID/gram
  Biodistribution, striatum: 0.352 ± 0.052 ^a %ID/gram
  Biodistribution, total brain: 0.210 ± 0.035 %ID/gram
[3]; 30 min p.i. (control)
  Biodistribution, blood: 0.192 ± 0.075 %ID/gram
  Biodistribution, cerebellum: 0.066 ± 0.023 %ID/gram
  Biodistribution, fat: 0.371 ± 0.091 %ID/gram
  Biodistribution, heart: 0.187 ± 0.042 %ID/gram
  Biodistribution, kidney: 1.294 ± 0.268 %ID/gram
  Biodistribution, liver: 10.085 ± 1.972 %ID/gram
  Biodistribution, lung: 0.233 ± 0.045 %ID/gram
  Biodistribution, muscle: 0.133 ± 0.035 %ID/gram
  Biodistribution, striatum: 0.230 ± 0.030 ^a %ID/gram and 0.230 ± 0.030 %ID/gram
  Biodistribution, total brain: 0.087 ± 0.016 %ID/gram
[3]; 60 min p.i.
  Biodistribution, blood: 0.152 ± 0.030 %ID/gram
  Biodistribution, cerebellum: 0.046 ± 0.014 %ID/gram
  Biodistribution, fat: 0.278 ± 0.040 %ID/gram
  Biodistribution, heart: 0.121 ± 0.025 %ID/gram
  Biodistribution, kidney: 0.758 ± 0.112 %ID/gram
  Biodistribution, lung: 0.163 ± 0.027 %ID/gram
  Biodistribution, muscle: 0.084 ± 0.013 %ID/gram
  Biodistribution, striatum: 0.201 ± 0.037 ^a %ID/gram
  Biodistribution, total brain: 0.057 ± 0.008 %ID/gram

## Cn1cc(-c2ccncc2)c(-c2ccc(OCc3ccc4cc(O[11CH3])ccc4n3)cc2)n1 [[^11C]3, 6-(methoxy-^11C)-2-((4-(1-methyl-4-(pyridin-4-yl)-1H-pyrazol-3-yl)phenoxy)methyl)quinoline]
[3]; 5 min p.i.
  Biodistribution, blood: 0.282 ± 0.025 %ID/gram
  Biodistribution, cerebellum: 0.251 ± 0.031 %ID/gram
  Biodistribution, fat: 0.139 ± 0.038 %ID/gram
  Biodistribution, heart: 0.416 ± 0.026 %ID/gram
  Biodistribution, kidney: 1.333 ± 0.282 %ID/gram
  Biodistribution, liver: 5.357 ± 0.989 %ID/gram
  Biodistribution, lung: 0.744 ± 0.241 %ID/gram
  Biodistribution, muscle: 0.151 ± 0.027 %ID/gram
  Biodistribution, striatum: 0.293 ± 0.075 ^b %ID/gram
  Biodistribution, total brain: 0.249 ± 0.037 %ID/gram
[3]; 30 min p.i. (control)
  Biodistribution, blood: 0.275 ± 0.041 %ID/gram
  Biodistribution, cerebellum: 0.090 ± 0.018 %ID/gram
  Biodistribution, fat: 0.221 ± 0.060 %ID/gram
  Biodistribution, heart: 0.264 ± 0.032 %ID/gram
  Biodistribution, kidney: 0.883 ± 0.123 %ID/gram
  Biodistribution, liver: 3.172 ± 0.606 %ID/gram
  Biodistribution, lung: 0.389 ± 0.082 %ID/gram
  Biodistribution, muscle: 0.175 ± 0.009 %ID/gram
  Biodistribution, striatum: 0.160 ± 0.023 ^a %ID/gram
  Biodistribution, total brain: 0.105 ± 0.011 %ID/gram
[3]; 60 min p.i.
  Biodistribution, blood: 0.210 ± 0.023 %ID/gram
  Biodistribution, cerebellum: 0.066 ± 0.008 %ID/gram
  Biodistribution, fat: 0.135 ± 0.026 %ID/gram
  Biodistribution, heart: 0.182 ± 0.020 %ID/gram
  Biodistribution, kidney: 0.637 ± 0.052 %ID/gram
  Biodistribution, liver: 1.724 ± 0.510 %ID/gram
  Biodistribution, lung: 0.249 ± 0.015 %ID/gram
  Biodistribution, muscle: 0.129 ± 0.006 %ID/gram
  Biodistribution, striatum: 0.089 ± 0.014 ^a %ID/gram
  Biodistribution, total brain: 0.074 ± 0.005 %ID/gram

## Cn1ncc(-c2ccncc2)c1-c1ccc(OCc2cc(O[11CH3])c3ccccc3n2)cc1 [[^11C]4, 4-(methoxy-^11C)-2-((4-(1-methyl-4-(pyridin-4-yl)-1H-pyrazol-5-yl)phenoxy)methyl)quinoline]
[3]; 5 min p.i.
  Biodistribution, blood: 0.099 ± 0.015 %ID/gram
  Biodistribution, cerebellum: 0.094 ± 0.017 %ID/gram
  Biodistribution, fat: 0.066 ± 0.016 %ID/gram
  Biodistribution, heart: 0.335 ± 0.026 %ID/gram
  Biodistribution, kidney: 1.744 ± 0.316 %ID/gram
  Biodistribution, liver: 3.312 ± 0.494 %ID/gram
  Biodistribution, lung: 0.643 ± 0.196 %ID/gram
  Biodistribution, muscle: 0.146 ± 0.027 %ID/gram
  Biodistribution, striatum: 0.151 ± 0.033 ^a %ID/gram
  Biodistribution, total brain: 0.091 ± 0.017 %ID/gram
[3]; 30 min p.i. (control)
  Biodistribution, blood: 0.067 ± 0.006 %ID/gram
  Biodistribution, cerebellum: 0.024 ± 0.007 %ID/gram
  Biodistribution, fat: 0.139 ± 0.027 %ID/gram
  Biodistribution, heart: 0.132 ± 0.019 %ID/gram
  Biodistribution, kidney: 0.645 ± 0.088 %ID/gram
  Biodistribution, liver: 4.430 ± 0.481 %ID/gram
  Biodistribution, lung: 0.156 ± 0.020 %ID/gram
  Biodistribution, muscle: 0.093 ± 0.010 %ID/gram
  Biodistribution, striatum: 0.083 ± 0.010 ^a %ID/gram
  Biodistribution, total brain: 0.025 ± 0.004 %ID/gram
[3]; 60 min p.i.
  Biodistribution, blood: 0.067 ± 0.011 %ID/gram
  Biodistribution, cerebellum: 0.015 ± 0.003 %ID/gram
  Biodistribution, fat: 0.139 ± 0.058 %ID/gram
  Biodistribution, heart: 0.103 ± 0.012 %ID/gram
  Biodistribution, kidney: 0.575 ± 0.075 %ID/gram
  Biodistribution, liver: 4.588 ± 0.577 %ID/gram
  Biodistribution, lung: 0.107 ± 0.016 %ID/gram
  Biodistribution, muscle: 0.052 ± 0.009 %ID/gram
  Biodistribution, striatum: 0.037 ± 0.004 ^a %ID/gram
  Biodistribution, total brain: 0.015 ± 0.002 %ID/gram
